In US9890149B2 (NuBridge BioSciences, priority 2015, dated 2018):

Biological target: T1, ΔF508 mutant CFTR (Homo sapiens, UniProt P13569, DEL508-508)
T1 construct: expressed in transfected cells; host or cells: Fischer rat thyroid (FRT) cells
Assay: Fluorescence Assay (halide-sensitive YFP, iodide influx) for ΔF508 mutant CFTR activity
Format: cell-based
Conditions: FRT cells expressing ΔF508-CFTR and YFP-H148Q/I152L, incubated 27° C. 20-24 h; forskolin (20 μM) and test compounds (20 μM) for 20 min; rate of fluorescence quenching by I−, normalized to forskolin alone
Source text: The ΔF508 mutant CFTR activities of the CFTR modulators are detected using the Fluorescence Assay developed by Pedemonte (Pedemonte N., et al., Antihypertensive 1,4-dihydropyridines as correctors of the cystic fibrosis transmembrane conductance regulator channel gating defect caused by cystic fibrosis mutations, Mol. Pharmacol., 2005, 68, 1736-1746).
Fischer rat thyroid (FRT) cells, stably transfected with ΔF508 were retransfected with the YFP-H148Q/I152L fluorescent protein. The cells were plated (100,000 cells/well) on black 96-well microplates with clear plastic bottom (Corning Life Sciences, Acton, Mass.).
The 96-well microplates containing FRT cells expressing F508-CFTR and the halide-sensitive YFP were incubated at 27° C. for 20 to 24 h to allow rescue of the mutant protein to the plasma membrane. After incubation, cells were washed with PBS (containing 137 mM NaCl, 2.7 mM KCl, 8.1 mM Na2HPO4, 1.5 mM KH2PO4, 1 mM CaCl2, and 0.5 mM MgCl2) and stimulated for 20 min with forskolin (20 μM) and test compounds (20 μM) in a final volume of […] Microplates were then transferred to a microplate reader for CFTR activity determination.

T1 sequence (P13569 with tags, fused parts or gaps DEL508-508): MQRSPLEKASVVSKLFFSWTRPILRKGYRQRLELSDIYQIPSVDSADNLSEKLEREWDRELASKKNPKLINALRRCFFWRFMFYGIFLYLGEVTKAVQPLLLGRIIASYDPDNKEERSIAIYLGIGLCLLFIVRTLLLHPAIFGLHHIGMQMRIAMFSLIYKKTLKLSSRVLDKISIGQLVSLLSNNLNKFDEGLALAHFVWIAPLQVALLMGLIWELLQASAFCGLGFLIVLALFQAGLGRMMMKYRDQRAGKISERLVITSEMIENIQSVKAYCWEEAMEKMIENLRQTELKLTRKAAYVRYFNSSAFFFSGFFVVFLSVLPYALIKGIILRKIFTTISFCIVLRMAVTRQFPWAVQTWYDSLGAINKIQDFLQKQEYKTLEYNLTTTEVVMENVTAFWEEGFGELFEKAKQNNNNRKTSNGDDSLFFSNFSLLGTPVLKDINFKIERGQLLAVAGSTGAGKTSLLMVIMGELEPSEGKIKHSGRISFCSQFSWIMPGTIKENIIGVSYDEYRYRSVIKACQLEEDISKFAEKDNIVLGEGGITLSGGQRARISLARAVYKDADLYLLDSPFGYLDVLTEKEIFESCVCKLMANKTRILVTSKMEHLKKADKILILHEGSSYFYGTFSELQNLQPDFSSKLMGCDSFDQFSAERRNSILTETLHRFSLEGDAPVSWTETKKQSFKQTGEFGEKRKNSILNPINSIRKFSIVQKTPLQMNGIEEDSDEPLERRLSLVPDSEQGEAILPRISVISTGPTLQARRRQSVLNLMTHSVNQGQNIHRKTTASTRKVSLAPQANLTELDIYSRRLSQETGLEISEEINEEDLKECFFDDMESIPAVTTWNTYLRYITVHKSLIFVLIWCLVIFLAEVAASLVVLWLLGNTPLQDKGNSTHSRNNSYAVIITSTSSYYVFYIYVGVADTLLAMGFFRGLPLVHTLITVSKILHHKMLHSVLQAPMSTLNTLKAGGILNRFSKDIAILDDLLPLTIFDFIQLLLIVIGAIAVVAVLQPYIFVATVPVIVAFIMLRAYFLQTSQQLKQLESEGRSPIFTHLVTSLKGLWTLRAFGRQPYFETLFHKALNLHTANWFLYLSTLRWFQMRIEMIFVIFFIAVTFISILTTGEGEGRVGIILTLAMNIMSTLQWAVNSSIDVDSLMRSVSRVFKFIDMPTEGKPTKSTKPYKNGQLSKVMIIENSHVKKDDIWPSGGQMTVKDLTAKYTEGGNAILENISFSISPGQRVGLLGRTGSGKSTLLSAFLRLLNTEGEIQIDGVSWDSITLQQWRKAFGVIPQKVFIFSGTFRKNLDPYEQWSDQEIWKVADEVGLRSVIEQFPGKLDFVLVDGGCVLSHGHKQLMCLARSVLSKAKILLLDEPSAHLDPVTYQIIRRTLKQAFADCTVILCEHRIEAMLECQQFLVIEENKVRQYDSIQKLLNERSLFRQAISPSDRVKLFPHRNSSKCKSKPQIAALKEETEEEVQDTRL

For `Cl.Nc1cc(C(F)(F)F)c(-c2c(F)cccc2F)nc1C(=O)Nc1cnsc1OC1CCCC(N)C1` (stereo not shown) [Example 61, 3-amino-N-(5-((3-aminocyclohexyl)oxy)isothiazol-4-yl)-6-(2,6-difluorophenyl)-5-(trifluoromethyl)picolinamide hydrochloride], the “CFTR Activity” value was 0.4.
